One data set concerns 4T1-Luc cells. The data set is described as follows: Ester stability in live 4T1-Luc cells, BL imaging. The following applies: 10 μM. Type of data set: cell-based, murine. As for the experimental part: First, we prepared BL660-Me, a methyl ester derivative of BL660 as shown in FIG. 2a for comparison to the benzyl ester (4) of FIG. 1a. Next, we cultured 4T1 murine breast cancer cells, stably expressing the luciferase enzyme (4T1-Luc). The cells were then treated with a DMSO (dimethyl sulfoxide) vehicle control, BL660-Me or Compound (4) (FIG. 3a and FIG. 10a, b, c respectively?). Imaging was performed using the IVIS In Vivo Imaging System.
4T1-Luc cell was cultured in phenol red-free RPMI 1640 (ATCC) with 10% fetal bovine serum (FBS, Sigma Aldrich), and 1% penicillin/streptomycin (Corning).
Evaluation of BL660-Me and 4 in 4T1-Luc Cells. 4T1-Luc cells (180K) were seeded into 24-well plates and incubated for 24 hours. The cells were ˜85% confluent. The media was removed and replaced with serum-free RPMI 1640. An initial background scan was recorded on an IVIS imaging system in open mode where no filters were applied. Cells were then treated with DMSO (2.5 μL, 0.5%), BL660-Me, or compound 4 in DMSO (10 μM final concentration). After 30 minutes incubation at 37° C., bioluminescence was collected. ROIs were drawn around each well. The total luminescence count for each well for a given condition was averaged. The signal intensity was quantified using the Living Image Analysis Software.

Data set [1] in a line: Hydrolytic stability of BL660 esters in PBS, luciferase BL readout. The format is physicochemical. To be noted: for rate of hydrolysis: 10 μM, PBS pH 7.4, 37° C., 1, 6 and 12 hours. As for the experimental part: We began our analysis of stability by incubating BL660 esters of Compound (1), Compound (2), and Compound (3) at 37° C. in PBS (phosphate-buffered saline) (pH 7.4). After 1, 6, and 12 hours, luciferase was added (10mU, 37° C., pH 7.4) to initiate BL production. The rate of hydrolysis, reported as total luminescence counts per hour, indicates hydrolysis in descending order is: Compound (1) (13.9±1.4×10^3); Compound (2) (3.3±0.6×10^3), and Compound (3) (1.0±0.1×10^3) (FIG. 1b, wherein the esters are indicated on the horizontal axis) and FIG. 8 (wherein the respective timeline plots are identified beneath the horizontal axis as (1), (2), etc.). Luminescent counts were recorded using an IVIS In Vivo Imaging System. […] Without wishing to be bound by any theory, we speculate hydrolysis of (3) may involve an SN1 mechanism, thus favoring formation of a double benzylic carbocation.

Another data set relates to porcine liver esterase. The data set is described as follows: Esterase reactivity: treatment with porcine liver esterase, BL readout. The format is in vitro ADME. To be noted: 10 μM, porcine liver esterase 0.1 units/mL, 37° C., pH 7.4, 20, 40 and 60 minutes. The source says: The enzymatic rates, reported as total luminescence counts per minute, in descending order are: Compound (1) (31.0±6.8×10^2), (3) (9.5±1.2×10^2), and (2) (0.6±0.1×10^2) (FIG. 1c and FIG. 9). The greater stability imparted by the aromatic ring is not surprising since esterase reactivity can be readily attenuated with bulkier substituents.

Another data set has as its system A549 cells. The data set is described as follows: MTT assay using MTX-Me2 and MTX-(PhiPr)2. The format is cell-based. To be noted: highest concentration (10 μM), 24 hours. The procedure: Next, we modified the two carboxylates in methotrexate (a potent anticancer and immunosuppressive drug) to afford the methyl (MTX-Me2) or Ph^iPr (MTX-(Ph^iPr)2) ester variants (FIG. 2b). A549 cells were cultured and treated with MTX-Me2 or MTX-(Ph^iPr)2 at various concentrations for 24 hours before they were subjected to MTT analyses. […] Statistical analysis for FIG. 3b, FIG. 3c and FIG. 3d was performed using a two-tailed t-test (α=0.05, **** P<0.001)
48-well plates were seeded with 30,000 A549 cells per well (500 μL of 60,000 cells/mL) and incubated at 37° C. with 5% CO2 for 24 hours. Media was removed and fresh serum-free RPMI 1640 containing […] of MTX-Me2 or MTX-(PriPr)2 were added (0.1% DMSO final v/v). The media was removed after 24 hours incubation and replaced with 500 μL of a 20:1 mixture of serum-free RPMI 1640 and (3-(4,5-dimethylthiazol2-yl)-2,5-diphenyl-tetrazolium bromide (MTT, 5 mg/mL stock in PBS). The cells were incubated for 2 hours under the same condition and then the medium was removed and replaced with DMSO (500 μL/well). The absorbance of each well was recorded at 555 nm on a microplate reader. Viability was calculated by the absorbance relative to the vehicle control.
On the technique in general: Tetrazolium assays rely on reduction of a dye to a coloured formazan, in cell work by metabolically active cells.

`CCN(CC)c1ccc(C=CC=CC2=NC(C(=O)OC)CS2)cc1` (stereo not drawn) [BL660-Me]: in the data set with 4T1-Luc cells (30 mins), the “luminescence relative to Compound (4)” value was found to be 31 fold and the “luminescence relative to the vehicle” value is given as 55 fold. Moreover, the total luminescence count with 4T1-Luc cells (30 mins at 37° C.) was 94.1±5.9×10^3 total luminescence count.

Consider `CCN(CC)c1ccc(C=CC=CC2=NC(C(=O)OC(c3ccccc3)c3ccccc3)CS2)cc1` (stereo not drawn) [Compound (2)], for which the rate of hydrolysis in data set [1] is reported as 3.3±0.6×10^3 total luminescence counts per hour. Besides, the enzymatic rate in the data set on porcine liver esterase is given as 0.6±0.1×10^2 total luminescence counts per minute.

Broadly, the viability is a read-out of living cells in per cent, often relative to untreated cells. Read a low viability as more harm to the cells. Turning to `CC(C)C(OC(=O)CCC(NC(=O)c1ccc(N(C)Cc2cnc3nc(N)nc(N)c3n2)cc1)C(=O)OC(c1ccccc1)C(C)C)c1ccccc1` (mixture of isomers) [MTX-(Ph^iPr)2], in the data set on A549 cells, the viability came to 100%.

With `CCN(CC)c1ccc(C=CC=CC2=NC(C(=O)OC(C)c3ccccc3)CS2)cc1` (stereo not drawn) [Compound (3)], in data set [1], the rate of hydrolysis is 1.0±0.1×10^3 total luminescence counts per hour. Also, in data set [1] (PBS pH 7.4, 37° C.), the “effectiveness at blocking hydrolysis, methyl substituent of (3) versus phenyl group of (2)” value was “over three-fold more effective at blocking hydrolysis”. In addition, the enzymatic rate in the data set with porcine liver esterase was 9.5±1.2×10^2 total luminescence counts per minute.

`COC(=O)CCC(NC(=O)c1ccc(N(C)Cc2cnc3nc(N)nc(N)c3n2)cc1)C(=O)OC` (stereo not drawn) [MTX-Me2, reference compound] gave a viability with A549 cells of around 63%.

For `CCN(CC)c1ccc(C=CC=CC2=NC(C(=O)OCc3ccccc3)CS2)cc1` (stereo not drawn) [Compound (1)], the rate of hydrolysis in data set [1] is listed as 13.9±1.4×10^3 total luminescence counts per hour. Further, the enzymatic rate in the data set on porcine liver esterase is 31.0±6.8×10^2 total luminescence counts per minute.

These data come from patent US20240158359A1, “HYDROLYSIS-RESISTANT ESTERS FOR DRUG AND IMAGING AGENT DELIVERY” (The Board of Trustees of the University of lllinois, priority 2022, published 2024).
